This is an account of results in the Biogen ADME set (Fang et al. 2023).

The conditions of this data set: for aqueous solubility: pH 6.8.

Values after ≈ are worked out from the molar mass of the structure shown. Bounds are passed on as bounds.

For the molecule `Cc1nc(-c2ccncc2)cc(N2CCC(CO)CC2)n1`, the intrinsic clearance, human liver microsomes was not above 4.74 mL/min/kg and the intrinsic clearance, rat liver microsomes stood at 36.9 mL/min/kg.

Usually aqueous solubility stands for how much of the substance goes into solution per volume. A low value points to a poorly soluble substance. In the case of `O=C(CN1CCSC1=O)N1CCN(Cc2sc3ccccc3c2Cl)CC1`, the intrinsic clearance, human liver microsomes came to 72.7 mL/min/kg; the intrinsic clearance, rat liver microsomes worked out at 349 mL/min/kg; the aqueous solubility came to 54.4 µg/mL (≈ 133 µM).

In the case of `COc1ccc2nc(CN3CCC(O)(c4ccc(C)cc4)CC3)ccc2c1`, the MDR1-MDCK efflux ratio amounted to 0.485; the intrinsic clearance, human liver microsomes amounted to 44.5 mL/min/kg; the intrinsic clearance, rat liver microsomes was determined as 631 mL/min/kg; the aqueous solubility turned out to be 29.7 µg/mL (≈ 81.9 µM).

`NS(=O)(=O)C#Cc1ccccc1` had an intrinsic clearance, human liver microsomes of 10.6 mL/min/kg and an intrinsic clearance, rat liver microsomes not above 10.7 mL/min/kg.

On to `O=C(c1ccc2[nH]ccc2c1)N1CCCC(c2cccc(-c3ccc(F)cc3)n2)C1` (stereo not drawn), for which the MDR1-MDCK efflux ratio is 1.6; the intrinsic clearance, human liver microsomes was determined as 72.8 mL/min/kg; the intrinsic clearance, rat liver microsomes came to 571 mL/min/kg; the aqueous solubility is 2.35 µg/mL (≈ 5.88 µM).

With `CC(=O)Nc1ncc(C(=O)O)s1`, the fraction unbound, human plasma came to 0.66 and the fraction unbound, rat plasma was found to be 0.715.

Regarding `O=C(O)/C=C/c1ccc(Cn2ccnc2)cc1`, the MDR1-MDCK efflux ratio amounted to 3; the intrinsic clearance, human liver microsomes is not above 4.74 mL/min/kg; the intrinsic clearance, rat liver microsomes was not above 10.7 mL/min/kg; the aqueous solubility turned out to be 50.6 µg/mL (≈ 222 µM).

For `O=C(c1cccc(Cl)c1)N1CCN(C(=O)c2ccc3ccccc3c2O)CC1`, the MDR1-MDCK efflux ratio is 0.678; the intrinsic clearance, human liver microsomes was determined as 28.8 mL/min/kg; the intrinsic clearance, rat liver microsomes is 166 mL/min/kg; the aqueous solubility came to 2.4 µg/mL (≈ 6.08 µM).

In the case of `Cc1nc(C)c(CNc2cnn(-c3ccccc3)c2)s1`, the MDR1-MDCK efflux ratio came out at 0.521; the intrinsic clearance, human liver microsomes was found to be 14.2 mL/min/kg; the intrinsic clearance, rat liver microsomes stood at 124 mL/min/kg; the aqueous solubility is 36.4 µg/mL (≈ 128 µM).

Turning to `N#CCN1CCC(CNC(=O)c2c(F)ccc(F)c2F)CC1`, the MDR1-MDCK efflux ratio was found to be 1.76; the intrinsic clearance, human liver microsomes worked out at 4.81 mL/min/kg; the intrinsic clearance, rat liver microsomes was 15.7 mL/min/kg.

On to `Nc1nc(N)c2nc(-c3cccc(O)c3)c(-c3cccc(O)c3)nc2n1`, for which the MDR1-MDCK efflux ratio stood at 2.78; the intrinsic clearance, human liver microsomes was not above 4.74 mL/min/kg; the intrinsic clearance, rat liver microsomes was determined as 115 mL/min/kg; the aqueous solubility was found to be 2.1 µg/mL (≈ 6.06 µM).

Turning to `CCCS(=O)(=O)c1nc(NC2CC2)cc(-c2ccc3c(ccn3C3CC(C)(C)NC(C)(C)C3)c2)n1`, the MDR1-MDCK efflux ratio was 34.9; the intrinsic clearance, human liver microsomes stood at 51.1 mL/min/kg; the intrinsic clearance, rat liver microsomes amounted to 123 mL/min/kg.

For the molecule `CC(C)(C)n1cc(CNc2cccnc2)cn1`, the MDR1-MDCK efflux ratio came out at 0.564; the intrinsic clearance, human liver microsomes is not above 4.74 mL/min/kg; the intrinsic clearance, rat liver microsomes was determined as 41.7 mL/min/kg; the aqueous solubility was 25.4 µg/mL (≈ 111 µM).

As for `Cc1nn(C)c2sc(C(=O)N3CCC(C(=O)O)(c4ccccc4)CC3)cc12`, the MDR1-MDCK efflux ratio is 8.54; the intrinsic clearance, human liver microsomes is not above 4.74 mL/min/kg; the intrinsic clearance, rat liver microsomes was not above 10.7 mL/min/kg; the aqueous solubility was determined as 73.7 µg/mL (≈ 192 µM).

In the case of `CS(=O)(=O)N(CC(=O)Nc1ccccc1C(=O)NCc1ccco1)c1ccc(F)cc1`, the MDR1-MDCK efflux ratio worked out at 9.61; the intrinsic clearance, human liver microsomes is 131 mL/min/kg; the intrinsic clearance, rat liver microsomes was found to be 1110 mL/min/kg; the aqueous solubility was determined as 35.1 µg/mL (≈ 78.9 µM).

As for `Cc1cc(C)n(-c2cc(Nc3ccccc3C)ncn2)n1`, the MDR1-MDCK efflux ratio was 0.489; the intrinsic clearance, human liver microsomes turned out to be 59.7 mL/min/kg; the intrinsic clearance, rat liver microsomes was 286 mL/min/kg; the aqueous solubility turned out to be 1.74 µg/mL (≈ 6.23 µM).

With `O=C(NCC(=O)N1CCN(C2CC2)CC1)c1ccccc1`, the MDR1-MDCK efflux ratio was determined as 0.659; the intrinsic clearance, human liver microsomes is not above 4.74 mL/min/kg; the intrinsic clearance, rat liver microsomes is not above 10.7 mL/min/kg; the aqueous solubility is 62.3 µg/mL (≈ 217 µM).

Regarding `N#Cc1cc(F)c(N2CCN(CCO)CC2)c(F)c1`, the MDR1-MDCK efflux ratio stood at 0.524; the intrinsic clearance, human liver microsomes was not above 4.74 mL/min/kg; the intrinsic clearance, rat liver microsomes is not above 10.7 mL/min/kg; the aqueous solubility is 41.3 µg/mL (≈ 154 µM).

On to `Cc1ccsc1C(=O)Nc1nc2ccccc2s1`, for which the MDR1-MDCK efflux ratio was found to be 0.136 and the aqueous solubility is 0.29 µg/mL (≈ 1.06 µM).

Molecule `O=[N+]([O-])c1ccc(S(=O)(=O)Nc2cccc(-c3nc4ccccc4s3)c2)cc1` yielded an intrinsic clearance, human liver microsomes of 267 mL/min/kg and an intrinsic clearance, rat liver microsomes of 512 mL/min/kg.

`CN1CC[C@@H](c2c(O)cc(O)c3c(=O)cc(-c4ccccc4Cl)oc23)[C@@H]1CO`: the MDR1-MDCK efflux ratio turned out to be 122; the intrinsic clearance, human liver microsomes was found to be 27 mL/min/kg; the intrinsic clearance, rat liver microsomes came to 142 mL/min/kg; the aqueous solubility came to 64.9 µg/mL (≈ 162 µM).

On to `O=C(C(c1ccccc1)c1ccccc1)N1CCOCC(Cc2ccc3cnccc3c2)C1` (stereo not drawn), for which the MDR1-MDCK efflux ratio was 1.97; the intrinsic clearance, human liver microsomes was determined as 404 mL/min/kg; the intrinsic clearance, rat liver microsomes is 653 mL/min/kg; the aqueous solubility stood at 35.3 µg/mL (≈ 80.9 µM).

With `Cc1noc(C2CCN(C(=O)C3(c4cccc(F)c4)CCC3)CC2)n1`, the MDR1-MDCK efflux ratio was found to be 0.861; the intrinsic clearance, human liver microsomes is 54.1 mL/min/kg; the intrinsic clearance, rat liver microsomes is 2450 mL/min/kg; the aqueous solubility was determined as 76.3 µg/mL (≈ 222 µM).

On to `Cc1nc2ncc3c(n2n1)CC(C)(C)CC3=O`, for which the MDR1-MDCK efflux ratio was determined as 0.814; the intrinsic clearance, human liver microsomes was not above 4.74 mL/min/kg; the intrinsic clearance, rat liver microsomes is not above 10.7 mL/min/kg.

As to `CN(C)c1cc(CNc2ccc(C#N)cn2)ccn1`, the MDR1-MDCK efflux ratio is 0.695; the intrinsic clearance, human liver microsomes came to 10.4 mL/min/kg; the intrinsic clearance, rat liver microsomes worked out at 94.5 mL/min/kg; the aqueous solubility stood at 46 µg/mL (≈ 182 µM).

For the molecule `O=C(NCCN1CCC(O)(c2cccc(F)c2)CC1)c1cccc(F)c1`, the MDR1-MDCK efflux ratio stood at 5.65; the intrinsic clearance, human liver microsomes is 9.11 mL/min/kg; the intrinsic clearance, rat liver microsomes was 245 mL/min/kg; the aqueous solubility was determined as 53.5 µg/mL (≈ 148 µM).

With `CCCn1c(=O)[nH]c2nc(-c3ccc(S(=O)(=O)O)cc3)[nH]c2c1=O`, the intrinsic clearance, human liver microsomes is not above 4.74 mL/min/kg; the intrinsic clearance, rat liver microsomes was not above 10.7 mL/min/kg; the aqueous solubility turned out to be 52.1 µg/mL (≈ 149 µM).

Take `CC(C)c1nc(CCn2ccnc2-c2ccoc2)cs1`: the MDR1-MDCK efflux ratio was found to be 0.661; the intrinsic clearance, human liver microsomes was 234 mL/min/kg; the intrinsic clearance, rat liver microsomes came out at 2160 mL/min/kg; the aqueous solubility was determined as 29.2 µg/mL (≈ 102 µM).

`Nc1ncnc2c1c(-c1ccc(Oc3ccccc3)cc1)nn2[C@@H]1CCCNC1`: the MDR1-MDCK efflux ratio stood at 21; the fraction unbound, human plasma is 0.0905; the fraction unbound, rat plasma amounted to 0.0702; the intrinsic clearance, human liver microsomes is 35 mL/min/kg. The molecule further came in with an intrinsic clearance, rat liver microsomes of 103 mL/min/kg and an aqueous solubility of 40 µg/mL (≈ 103 µM).

`Cc1ncc(CN(C)c2nnc(C)c(C)c2C#N)s1` came in with an aqueous solubility of 28.6 µg/mL (≈ 105 µM).

With `Cc1cc(C)n(-c2ccc(C(=O)NCc3cccnc3)cc2)n1`, the MDR1-MDCK efflux ratio is 4.95; the intrinsic clearance, human liver microsomes is not above 4.74 mL/min/kg; the intrinsic clearance, rat liver microsomes is 94.4 mL/min/kg; the aqueous solubility was found to be 45.4 µg/mL (≈ 148 µM).

The molecule `COc1c(C)cnc(Cn2cnc3c(Cl)nc(N)nc32)c1C` gave an intrinsic clearance, human liver microsomes of 8.46 mL/min/kg and an intrinsic clearance, rat liver microsomes of 72.9 mL/min/kg.

For the molecule `Cc1cc(F)ccc1-c1nc(CCn2c(C)nc3ccccc32)no1`, the MDR1-MDCK efflux ratio was 0.696; the intrinsic clearance, human liver microsomes was 398 mL/min/kg; the intrinsic clearance, rat liver microsomes is 1800 mL/min/kg.

Regarding `O=c1ccc(C2CC2)nn1CC1CN(CC2(O)CCCC2)C1`, the MDR1-MDCK efflux ratio came out at 12.5; the intrinsic clearance, human liver microsomes is not above 4.74 mL/min/kg; the intrinsic clearance, rat liver microsomes turned out to be 84 mL/min/kg; the aqueous solubility is 52.6 µg/mL (≈ 173 µM).

Molecule `C[C@@H](c1ccc(F)cc1)n1nnc2cnc3ccc(-c4ccc5ocnc5c4)cc3c21` registered an aqueous solubility of 0.47 µg/mL (≈ 1.15 µM).

For the molecule `CCOc1ccc(-c2csc(N)n2)cc1`, the MDR1-MDCK efflux ratio is 0.572; the intrinsic clearance, human liver microsomes turned out to be 102 mL/min/kg; the intrinsic clearance, rat liver microsomes turned out to be 338 mL/min/kg; the aqueous solubility was determined as 6.55 µg/mL (≈ 29.7 µM).

`Cn1cc(C(=O)N2CCC(CC(=O)O)CC2)cn1` had an intrinsic clearance, human liver microsomes not above 4.74 mL/min/kg; an intrinsic clearance, rat liver microsomes not above 10.7 mL/min/kg; an aqueous solubility of 57.3 µg/mL (≈ 228 µM).

The molecule `CS(=O)(=O)NCCc1ccc2c(c1)OCCO2` came in with an aqueous solubility of 32.2 µg/mL (≈ 125 µM).

In the case of `CC(C)c1noc2nc(C3CC3)cc(C(=O)N3CCN(C)C(=O)C3)c12`, the MDR1-MDCK efflux ratio came out at 40.6; the intrinsic clearance, human liver microsomes was 7.73 mL/min/kg; the intrinsic clearance, rat liver microsomes is 20.8 mL/min/kg; the aqueous solubility amounted to 36.1 µg/mL (≈ 106 µM).

For `COc1ccc(CN2CC(c3ccncc3)C2)cc1Cn1cccn1`, the MDR1-MDCK efflux ratio stood at 6.36; the intrinsic clearance, human liver microsomes came to 10.8 mL/min/kg; the intrinsic clearance, rat liver microsomes was determined as 397 mL/min/kg.

Turning to `CC(C)[C@H](Nc1ncc(Cl)cn1)C(=O)N1CCCC1`, the MDR1-MDCK efflux ratio was found to be 1.08; the intrinsic clearance, human liver microsomes amounted to 15.4 mL/min/kg; the intrinsic clearance, rat liver microsomes was determined as 181 mL/min/kg; the aqueous solubility turned out to be 36.2 µg/mL (≈ 128 µM).

For `O=S(=O)(NC[C@H]1CCCN1)c1ccc(OC(F)F)cc1`, the MDR1-MDCK efflux ratio is 2.89; the intrinsic clearance, human liver microsomes was not above 4.74 mL/min/kg; the intrinsic clearance, rat liver microsomes stood at 34.5 mL/min/kg.

Turning to `NC(=O)COc1ncnc2ccccc12`, the MDR1-MDCK efflux ratio came to 1.27; the intrinsic clearance, human liver microsomes is not above 4.74 mL/min/kg; the intrinsic clearance, rat liver microsomes is not above 10.7 mL/min/kg; the aqueous solubility is 47.9 µg/mL (≈ 235 µM).

Take `Cc1cn2c3c(=O)n(Cc4ccccc4Cl)c(=O)n(C)c3nc2n1-c1ccccc1O`: the MDR1-MDCK efflux ratio was 12.8 and the aqueous solubility turned out to be 0.19 µg/mL (≈ 0.436 µM).

`CCCc1cc(C)nc(O)c1CNC(=O)c1cc(-c2ccc(N3CCN(C(C)C)CC3)nc2)cc2c1cnn2C(C)C`: the MDR1-MDCK efflux ratio was determined as 122; the intrinsic clearance, human liver microsomes was 120 mL/min/kg; the intrinsic clearance, rat liver microsomes is 235 mL/min/kg.

As to `O=C(Nc1nccs1)c1c2c(nc3ccccc13)CCC2`, the MDR1-MDCK efflux ratio stood at 1.44; the intrinsic clearance, human liver microsomes was 13.2 mL/min/kg; the intrinsic clearance, rat liver microsomes was 477 mL/min/kg; the aqueous solubility was 6.78 µg/mL (≈ 23 µM).
